Patent US7271188B2, “Imidazolidine derivatives” (Chugai Seikayu Kabushiki Kaisha, priority 2003, dated 2007)
Where two headings read alike, the source gives them in different places.

Legend:
human androgen receptor [1] = biological target: T1, human androgen receptor (Homo sapiens, UniProt P10275); assay: Test Example 1: agonist effect, androgen receptor reporter gene assay in 11A11B2 cells; format: cell-based; settings: compound concentration showing transcription activity of 5% (0.1 nmol/L DHT = 100%, assay medium alone = 0%), 48 hours
T1 construct: expressed in transfected cells; host or cells: HeLa cells (clone 11A11B2), stably co-transfected with MMTV-Luc-Hyg reporter
T1 sequence (P10275 1-920): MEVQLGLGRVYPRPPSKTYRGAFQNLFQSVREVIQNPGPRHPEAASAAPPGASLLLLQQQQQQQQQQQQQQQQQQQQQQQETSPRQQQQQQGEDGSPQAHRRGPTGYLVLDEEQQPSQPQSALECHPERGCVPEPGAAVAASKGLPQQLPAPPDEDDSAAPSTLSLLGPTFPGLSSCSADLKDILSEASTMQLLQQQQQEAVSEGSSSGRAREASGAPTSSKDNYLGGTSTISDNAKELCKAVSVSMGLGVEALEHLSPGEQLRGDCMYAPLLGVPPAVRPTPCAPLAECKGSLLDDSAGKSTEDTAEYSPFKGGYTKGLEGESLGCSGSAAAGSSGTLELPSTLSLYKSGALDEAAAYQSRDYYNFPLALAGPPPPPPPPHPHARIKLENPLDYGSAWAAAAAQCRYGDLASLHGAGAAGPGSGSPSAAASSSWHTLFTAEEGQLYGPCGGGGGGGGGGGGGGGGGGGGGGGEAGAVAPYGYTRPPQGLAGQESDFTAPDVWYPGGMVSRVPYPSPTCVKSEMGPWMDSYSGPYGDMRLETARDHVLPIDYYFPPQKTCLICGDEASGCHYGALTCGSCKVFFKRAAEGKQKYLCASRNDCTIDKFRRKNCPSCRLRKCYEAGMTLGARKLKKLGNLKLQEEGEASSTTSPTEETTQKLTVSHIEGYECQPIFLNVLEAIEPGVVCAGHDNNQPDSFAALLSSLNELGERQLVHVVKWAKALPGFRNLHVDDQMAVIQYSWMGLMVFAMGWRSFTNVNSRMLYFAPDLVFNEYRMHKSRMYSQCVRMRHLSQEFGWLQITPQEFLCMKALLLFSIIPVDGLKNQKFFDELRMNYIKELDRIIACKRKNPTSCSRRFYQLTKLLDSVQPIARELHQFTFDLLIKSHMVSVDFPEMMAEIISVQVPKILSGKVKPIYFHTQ
Description: (§1) HeLa cells (purchased from Dai-Nippon Seiyaku K. K.) were cultured overnight in Dulbecco's Modified Eagle Medium containing no phenol red, but containing 3% charcoal-treated fetal bovine serum (hereafter referred to as DCC-FBS) (this medium is hereafter referred to as phenol-red-free DMEM). An MMTV-Luc-Hyg vector (reporter plasmid with […], containing an androgen response element and a hygromycin resistance gene: a vector obtained by substituting the chloramphenicol acetyl transferease gene of a GM-CAT vector (A.T.C.C No. 67282) purchased from the A.T.C.C. for the firefly luciferase gene, and inserting a hygromycin resistance gene), and pSG5-hAR-neo (human androgen receptor expression vector: a vector having an androgen receptor gene under the control of the SV40 promoter, and having a neomycin resistance gene inserted as a drug resistance gene) were transfected into the HeLa cells using an FuGENE™ 6 Transfection Reagent (obtained from Roche).
(§2) The clone cells thus obtained (11A11B2 cells) were maintained and propagated using DMEM containing 400 μg/mL neomycin, 200 μg/mL hygromycin and 10% FBS, and were propagated using phenol-red-free DMEM containing 10% DCC-FBS three to four days prior to the performance of an androgen receptor reporter gene assay.
The 11A11B2 cells were inoculated in a white clear-bottomed 96-well microplate (COSTAR) so that the cell concentration was 1.0×10^4/well, and were cultured overnight using phenol-red-free DMEM containing 3% DCC-FBS (hereafter referred to as the assay medium). Samples of the assay medium containing the compounds of the examples and compounds of the comparative examples were added so that the final concentrations of the compounds of the examples and compounds of the comparative examples were 1, 10, 100, 1,000 and 10,000 nmol/L (however, in the case of the compounds of Examples 1 and 2, the compounds were added so that the final concentrations were 1, 10, 100, 1,000, 10,000 and 100,000 nmol/L), and the cells were cultured for 48 hours, after which the transcription activity value was measured. The transcription activity was measured using a Bright-Glo™ Luciferase Assay System (Promega).
(§3) The transcription activity rates of the compounds of the examples were calculated from the transcription activity measured by the abovementioned method, with the transcription activity value obtained at 0.1 nmol/L DHT taken as 100%, and the transcription activity value in the case of the assay medium alone taken as 0%. The compound concentration showing a transcription activity of 5% (EC5 value) was calculated from a linear equation for two points on either side of 5%.

human androgen receptor [2] = biological target: T1, human androgen receptor; assay: Test Example 2: antagonist effect, androgen receptor reporter gene assay in 11A11B2 cells with 0.1 nmol/L DHT; format: cell-based
Description: as §1, §2
The 11A11B2 cells were inoculated in a white clear-bottomed 96-well microplate (COSTAR) so that the cell concentration was 1.0×10^4/well, and were cultured overnight using phenol-red-free DMEM containing 3% DCC-FBS (hereafter referred to as the assay medium). The assay medium containing DHT was added so that the final concentration of DHT was 0.1 nmol/L, and samples of the assay medium containing the compounds of the examples or compounds of the comparative examples were added so that the final concentrations of the compounds of the examples or compounds of the comparative examples were 1, 10, 100, 1,000 and 10,000 nmol/L, respectively. After culturing for 48 hours, the transcription activity values were measured. The transcription activity was measured using a Bright-Glo™ Luciferase Assay System (Promega).
as §3, with “0%.” for “0%. The compound concentration showing a transcription activity of 5% (EC5 value) was calculated from a linear equation for two points on either side of 5%.”
Accordingly, the value obtained by subtracting the transcription activity rate of Test Example 1 (Investigation of Agonist Activity) from the transcription activity rate of Test Example 2 (Investigation of Antagonist Activity) was used to calculate the compound concentration at which a transcription activity of 50% was shown (IC50 value). The IC50 value was calculated from a linear equation for two points on either side of 50%.

[3] = reports; cited from earlier work
androgen receptor = androgen receptor (Homo sapiens, UniProt P10275); settings: at a concentration of 10 μmol/L; cited from earlier work
[4] = prostate cancer patients treated with flutamide; cited from earlier work
castrated rats = settings: continuously administered to castrated rats for two weeks; cited from earlier work
[5] = concentration giving 50% transcription activity after subtracting the Test Example 1 agonist rate, 0.1 nmol/L DHT, 11A11B2 cells, 48 hours, read-out: IC50

SMILES | EC5 (human androgen receptor [1]) | IC50 (human androgen receptor [2]; [5]) | further results
CN1C(=S)N(c2ccc(C#N)c(C(F)(F)F)c2)C(=O)C1(C)C [Comparative Example 1, 4-(5-oxo-2-thioxo-3,4,4-trimethyl-1-imidazolidinyl)-2-trifluoromethylbenzonitrile, reference compound] | 0.08 nM | – | IC50 (human androgen receptor [2]): 1 nM
CC(=O)NCCN1C(=S)N(c2ccc(C#N)c(C(F)(F)F)c2)C(=O)C1(C)C [Comparative Example 2, 4-[3′-(2″-N-acetylaminoethyl)-4′,4′-dimethyl-5′-oxo-2′-thioxo-1′-imidazolidinyl]-2-trifluoromethylbenzonitrile, reference compound] | 3000 nM | 800 nM | –
CC(O)(CS(=O)(=O)c1ccc(F)cc1)C(=O)Nc1ccc(C#N)c(C(F)(F)F)c1 (stereo not drawn) [Comparative Example 3, bicalutamide] | – | – | side effects [3]: liver toxicity
CC(C)(O)C(=O)Nc1ccc([N+](=O)[O-])c(C(F)(F)F)c1 [Comparative Example 4, hydroxyflutamide] | 10 nM | – | androgen receptor transcription activity (androgen receptor): increase in androgen receptor transcription activity; concentration in the blood [4]: several
CC1(C)C(=O)N(c2ccc(C#N)c(C(F)(F)F)c2)C(=S)N1CCCS(N)(=O)=O [Example 1, 4-[3′-(3″-aminosulfonylpropyl)-4′,4′-dimethyl-5′-oxo-2′-thioxo-1′-imidazolidinyl]-2-trifluoromethylbenzonitrile] | 20000 nM | – | IC50 (human androgen receptor [2]): 200 nM
CC1(C)C(=O)N(c2ccc(C#N)c(C(F)(F)F)c2)C(=S)N1CCCCS(N)(=O)=O [Example 2, 4-[3′-(4″-aminosulfonylbutyl)-4′,4′-dimethyl-5′-oxo-2′-thioxo-1′-imidazolidinyl]-2-trifluoromethylbenzonitrile] | >100000 nM | 600 nM | –
CC1(C)C(=O)N(c2ccc(C#N)c(C(F)(F)F)c2)C(=S)N1CCCCCCS(N)(=O)=O [Example 3, 4-[3′-(6″-aminosulfonylhexyl)-4′,4′-dimethyl-5′-oxo-2′-thioxo-1′-imidazolidinyl]-2-trifluoromethylbenzonitrile] | 3000 nM | 200 nM | –
CC1(C)C(=O)N(c2ccc(C#N)c(C(F)(F)F)c2)C(=S)N1CCCCCS(N)(=O)=O [Example 7, 4-[3′-(5″-aminosulfonylpentyl)-4′,4′-dimethyl-5′-oxo-2′-thioxo-1′-imidazolidinyl]-2-trifluoromethylbenzonitrile] | >10000 nM | 900 nM | –
CN(C)S(=O)(=O)CCCCN1C(=S)N(c2ccc(C#N)c(C(F)(F)F)c2)C(=O)C1(C)C [Example 8, 4-[3′-(4″-N,N-dimethylaminosulfonylbutyl)-4′,4′-dimethyl-5′-oxo-2′-thioxo-1′-imidazolidinyl]-2-trifluoromethylbenzonitrile] | 2000 nM | – | IC50 (human androgen receptor [2]): 100 nM
CN(C)S(=O)(=O)CCCCCN1C(=S)N(c2ccc(C#N)c(C(F)(F)F)c2)C(=O)C1(C)C [Example 10, 4-[3′-(5″-N,N-dimethylaminosulfonylpentyl)-4′,4′-dimethyl-5′-oxo-2′-thioxo-1′-imidazolidinyl]-2-trifluoromethylbenzonitrile] | 2000 nM | 200 nM | –
CNS(=O)(=O)CCCCN1C(=S)N(c2ccc(C#N)c(C(F)(F)F)c2)C(=O)C1(C)C [Example 16, 4-[3′-(4″-N-methylaminosulfonylbutyl)-4′,4′-dimethyl-5′-oxo-2′-thioxo-1′-imidazolidinyl]-2-trifluoromethylbenzonitrile] | >10000 nM | 700 nM | –
CC1(C)C(=O)N(c2ccc(C#N)c(C(F)(F)F)c2)C(=S)N1CCS(N)(=O)=O [Example 18, 4-[3′-(2″-aminosulfonylethyl)-4′,4′-dimethyl-5′-oxo-2′-thioxo-1′-imidazolidinyl]-2-trifluoromethylbenzonitrile] | 7000 nM | – | IC50 (human androgen receptor [2]): 600 nM
CC(=O)O[C@]1(C(C)=O)CC[C@H]2[C@@H]3C=C(Cl)C4=CC(=O)CC[C@]4(C)[C@H]3CC[C@@]21C [chlormadinone acetate] | – | – | weight of the prostate gland (castrated rats): increase in the weight of the prostate gland
CC(=O)O[C@]1(C(C)=O)CC[C@H]2[C@@H]3C=C(Cl)C4=CC(=O)[C@@H]5C[C@@H]5[C@]4(C)[C@H]3CC[C@@]21C [cyproterone acetate] | – | – | weight of the prostate gland (castrated rats): increase in the weight of the prostate gland
CC(C)C(=O)Nc1ccc([N+](=O)[O-])c(C(F)(F)F)c1 [flutamide] | – | – | side effects [3]: liver toxicity
